Experimental findings from PubChem BioAssay (NCI) are described below.

Some test systems named below: IGROV1 ovarian; U251 CNS; HL-60(TB) leukemia; EKVX NSCLC; T-47D breast; M14 melanoma; OVCAR-3 ovarian; SNB-75 CNS; MDA-MB-231 breast; SK-MEL-5 melanoma; A498 renal; HS 578T breast; NCI-H522 lung; PC-3 prostate; NCI-H23 lung; OVCAR-8 ovarian; HCC-2998 colon; UACC-62 melanoma; DU-145 prostate; A549 NSCLC.
Holding throughout (experiment): NCI tumour cell line growth inhibition, 48 h

Structures are written as SMILES.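 Where inhibition never reached the appropriate level, the endpoint shown equals the highest concentration tested. Otherwise, values were interpolated linearly from a five-concentration, 48-hour dose response in 96-well plates. Definition used: TGI = concentration required for complete inhibition of growth.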

Consider `O=S(=O)(N=[Se](=O)(c1ccccc1)c1ccccc1)c1ccccc1`, for which the TGI with IGROV1 ovarian was above 100 µM; in the assay with U251 CNS it was above 100 µM; with HL-60(TB) leukemia it was 88.1 µM; with EKVX NSCLC, above 100 µM; in the assay on T-47D breast, above 100 µM; in the assay with M14 melanoma, above 100 µM. For the same molecule, the TGI in the assay on OVCAR-3 ovarian, in the assay with SNB-75 CNS, in the assay on MDA-MB-231 breast, in the assay with SK-MEL-5 melanoma, in the assay on A498 renal and in the assay with HS 578T breast was above 100 µM throughout. Also, the TGI with NCI-H522 lung, in the assay on PC-3 prostate, with NCI-H23 lung, in the assay with OVCAR-8 ovarian and with HCC-2998 colon was above 100 µM in each case.

Take `Cc1cc(N(C)c2ccccc2)nc(N(C)c2ccccc2)n1`: the TGI with IGROV1 ovarian was above 100 µM; in the assay on U251 CNS it was above 100 µM; in the assay with HL-60(TB) leukemia it was 59.6 µM; in the assay with UACC-62 melanoma it was above 100 µM; with EKVX NSCLC, above 100 µM; with M14 melanoma it was above 100 µM. Besides, the TGI with OVCAR-3 ovarian is 70.4 µM; in the assay with SNB-75 CNS, above 100 µM; in the assay with MDA-MB-231 breast, 78.9 µM; in the assay with SK-MEL-5 melanoma it was 69.1 µM; in the assay with A498 renal, above 100 µM; with DU-145 prostate, above 100 µM. Further, the TGI in the assay on HS 578T breast, in the assay on NCI-H522 lung, in the assay on PC-3 prostate, in the assay on NCI-H23 lung, in the assay with OVCAR-8 ovarian and in the assay on A549 NSCLC was above 100 µM in each case. The molecule also returned a TGI in the assay on HCC-2998 colon of 79.6 µM.

Consider `O=C(Cn1c2ccc(Br)cc2c2nc3ccccc3nc21)NNC(=O)NC1CCCCC1`, for which the TGI in the assay on U251 CNS, with UACC-62 melanoma, in the assay with EKVX NSCLC, in the assay with T-47D breast, with M14 melanoma and in the assay on OVCAR-3 ovarian was above 100 µM in each case. Further, the TGI with SNB-75 CNS was 73.5 µM; in the assay on MDA-MB-231 breast, above 100 µM; in the assay with SK-MEL-5 melanoma, above 100 µM; in the assay on A498 renal, above 100 µM; with DU-145 prostate, 86 µM; with HS 578T breast, above 100 µM. Also, the TGI in the assay on NCI-H522 lung was above 100 µM; in the assay with PC-3 prostate, above 100 µM; with NCI-H23 lung, above 100 µM; with OVCAR-8 ovarian it was above 100 µM; in the assay with A549 NSCLC, 41.7 µM; in the assay with HCC-2998 colon, above 100 µM.

As for `C[n+]1c(-c2ccc(/C=N\Nc3ccnc(N/N=C/c4ccc(-c5cn6ccsc6[n+]5C)cc4)n3)cc2)cn2ccsc21`, the TGI in the assay on IGROV1 ovarian was 65.4 µM; in the assay on U251 CNS it was 94.5 µM; in the assay with HL-60(TB) leukemia, 57.4 µM; in the assay with UACC-62 melanoma, 76.4 µM; with EKVX NSCLC, 50 µM; with M14 melanoma, 30.4 µM. For the same molecule, the TGI in the assay with OVCAR-3 ovarian is above 100 µM; in the assay on SNB-75 CNS, 92.1 µM; with MDA-MB-231 breast it was 67.3 µM; with SK-MEL-5 melanoma it was 35.4 µM; with A498 renal it was 54.8 µM; in the assay with DU-145 prostate it was 78 µM. The TGI in the assay with HS 578T breast, with NCI-H522 lung, in the assay on PC-3 prostate, with NCI-H23 lung, with OVCAR-8 ovarian and in the assay with A549 NSCLC was above 100 µM throughout. This molecule also displayed a TGI with HCC-2998 colon of 77.2 µM.

Take `CN(C)C12C=CC=CC3=C(c4ccccc4)C(c4ccccc4)=C(c4ccccc4)C31c1ccccc1C2` (configuration not stated): the TGI in the assay on IGROV1 ovarian, in the assay on U251 CNS, with HL-60(TB) leukemia, in the assay on EKVX NSCLC, with T-47D breast and with M14 melanoma was above 100 µM in each case. The TGI in the assay with SNB-75 CNS, in the assay with MDA-MB-231 breast, in the assay with SK-MEL-5 melanoma, in the assay on HS 578T breast, in the assay on NCI-H522 lung and in the assay with PC-3 prostate was above 100 µM each time. Besides, the TGI in the assay on OVCAR-8 ovarian, with A549 NSCLC and with HCC-2998 colon was above 100 µM throughout.

`C=C(C)C1Cc2c(cc3c(c2O)c(=O)c2ccccc2n3C)O1` (configuration not stated): the TGI came to 4.16 µM with IGROV1 ovarian; 12.7 µM in the assay with U251 CNS; 7.57 µM in the assay with UACC-62 melanoma; 35.3 µM in the assay on EKVX NSCLC; 21 µM in the assay with T-47D breast; 10.6 µM in the assay on M14 melanoma. The TGI in the assay with OVCAR-3 ovarian was 27.9 µM; with SNB-75 CNS, 17 µM; with MDA-MB-231 breast it was 6.72 µM; with SK-MEL-5 melanoma it was 8.02 µM; with A498 renal it was 22.1 µM; in the assay on HS 578T breast, 28.7 µM. The TGI with PC-3 prostate turned out to be 19.3 µM; in the assay on NCI-H23 lung, 5.34 µM; with OVCAR-8 ovarian, 5.67 µM; with A549 NSCLC, 24.9 µM; with HCC-2998 colon, 28.3 µM.

As for `O=C(Oc1ccc(C(c2c(O)c3ccccc3oc2=O)c2c(O)c3ccccc3oc2=O)cc1)c1ccc(C(=O)c2ccccc2)cc1`, the TGI in the assay with IGROV1 ovarian is 36.6 µM; in the assay with U251 CNS it was 54.7 µM; in the assay with UACC-62 melanoma it was 41 µM; with EKVX NSCLC it was 34.6 µM; in the assay with T-47D breast, above 100 µM; with OVCAR-3 ovarian it was 36.5 µM. Moreover, the TGI with SNB-75 CNS is 32.4 µM; with MDA-MB-231 breast, above 100 µM; in the assay on SK-MEL-5 melanoma, 75 µM; with DU-145 prostate, above 100 µM; with HS 578T breast, above 100 µM; in the assay with NCI-H522 lung, 30.6 µM. In addition, the TGI was determined as 35.8 µM with PC-3 prostate; 35.3 µM with NCI-H23 lung; 33.8 µM in the assay on OVCAR-8 ovarian; 55.8 µM in the assay on A549 NSCLC; 36 µM in the assay with HCC-2998 colon.
